Measured values as given in patent US10251395B2, “Substituted furano-/thienocycloalkylamino-2-pyrimidine derivatives and use thereof for controlling undesired plant growth” (Bayer CropScience Aktiengesellschaft, priority 2015, dated 2019).

Key:
Type in all cases: in vivo
Alopecurus myosuroides = test: Pre-emergence herbicidal effect; conditions: scored visually after 3 weeks
From the text: (§1) Seeds of monocotyledonous and dicotyledonous weed plants and crop plants are laid out in wood-fiber pots in sandy loam and covered with soil. The compounds of the invention, formulated in the form of wettable powders (WP) or as emulsion concentrates (EC), are then applied to the surface of the covering soil as aqueous suspension or emulsion at a water application rate equating to 600 to 800 L/ha with addition of 0.2% wetting agent.
(§2) After the treatment, the pots are placed in a greenhouse and kept under good growth conditions for the trial plants. The damage to the test plants is scored visually after a test period of 3 weeks by comparison with untreated controls (herbicidal activity in percent (%): 100% activity=the plants have died, 0% activity=like control plants).
(§3) • ABUTH: Abutilon theophrasti ALOMY: Alopecurus myosuroides • AMARE: Amaranthus retroflexus AVEFA: Avena fatua • CYPES: Cyperus esculentus ECHCG: Echinochloa crus-galli • LOLMU: Lolium multiflorum MATIN: Matricaria inodora • PHBPU: Ipomoea purpurea POLCO: Polygonum convolvulus • SETVI: Setaria viridis STEME: Stellaria media • VERPE: Veronica persica VIOTR: Viola tricolor

Amaranthus retroflexus [1] = test: Pre-emergence herbicidal effect; conditions: scored visually after 3 weeks
From the text: as §1, §2, §3

Matricaria inodora = test: Pre-emergence herbicidal effect; conditions: Dosage 320 g/ha, scored visually after 3 weeks
From the text: as §1, §2, §3

Setaria viridis [2] = test: Pre-emergence herbicidal effect; conditions: scored visually after 3 weeks
From the text: as §1, §2, §3

Viola tricolor [3] = test: Pre-emergence herbicidal effect; conditions: scored visually after 3 weeks
From the text: as §1, §2, §3

Viola tricolor [4] = test: Post-emergence herbicidal effect; conditions: assessed visually after about 3 weeks vs untreated controls
From the text: (§4) • ABUTH: Abutilon theophrasti ALOMY: Alopecurus myosuroides • AMARE: Amaranthus retroflexus AVEFA: Avena fatua • CYPES: Cyperus esculentus ECHCG: Echinochloa crus-galli • LOLMU: Lolium multiflorum MATIN: Matricaria inodora • PHBPU: Ipomoea purpurea POLCO: Polygonum convolvulus • SETVI: Setaria viridis STEME: Stellaria media • VERPE: Veronica persica VIOTR: Viola tricolor Seeds of monocotyledonous and dicotyledonous weed and crop plants are laid out in sandy loam in wood-fiber pots, covered with soil and cultivated in a greenhouse under good growth conditions. 2 to 3 weeks after sowing, the test plants are treated at the one-leaf stage. The compounds of the invention, formulated in the form of wettable powders (WP) or as emulsion concentrates (EC), are then sprayed onto the green parts of the plants as aqueous suspension or emulsion at a water application rate equating to 600 to 800 L/ha with addition of 0.2% wetting agent. After the test plants have been left to stand in the greenhouse under optimal growth conditions for about 3 weeks, the action of the preparations is assessed visually in comparison to untreated controls (herbicidal action in percent (%): 100% activity=the plants have died, 0% activity=like control plants).

Polygonum convolvulus = test: Pre-emergence herbicidal effect; conditions: Dosage 320 g/ha, scored visually after 3 weeks
From the text: as §1, §2, §3

Stellaria media [5] = test: Pre-emergence herbicidal effect; conditions: scored visually after 3 weeks
From the text: as §1, §2, §3

Veronica persica [6] = test: Pre-emergence herbicidal effect; conditions: scored visually after 3 weeks
From the text: as §1, §2, §3

Veronica persica [7] = test: Post-emergence herbicidal effect; conditions: assessed visually after about 3 weeks vs untreated controls
From the text: as §4

Amaranthus retroflexus [8] = test: Post-emergence herbicidal effect; conditions: assessed visually after about 3 weeks vs untreated controls
From the text: as §4

Abutilon theophrasti = test: Post-emergence herbicidal effect; conditions: 320 g/ha, assessed visually after about 3 weeks vs untreated controls
From the text: as §4

Stellaria media [9] = test: Post-emergence herbicidal effect; conditions: assessed visually after about 3 weeks vs untreated controls
From the text: as §4

Setaria viridis [10] = test: Post-emergence herbicidal effect; conditions: 320 g/ha, assessed visually after about 3 weeks vs untreated controls
From the text: as §4

SMILES	ALOMY pre-emergence efficacy (herbicidal activity) (Alopecurus myosuroides; Dosage 320 g/ha) [%]	AMARE pre-emergence efficacy (herbicidal activity) (Amaranthus retroflexus [1]; Dosage 320 g/ha) [%]	MATIN pre-emergence efficacy (herbicidal activity) (Matricaria inodora) [%]	SETVI pre-emergence efficacy (herbicidal activity) (Setaria viridis [2]; Dosage 320 g/ha) [%]	VIOTR pre-emergence efficacy (herbicidal activity) (Viola tricolor [3]; Dosage 320 g/ha) [%]	post-emergence efficacy VIOTR (Viola tricolor [4]; 320 g/ha) [%]	POLCO pre-emergence efficacy (herbicidal activity) (Polygonum convolvulus) [%]	STEME pre-emergence efficacy (herbicidal activity) (Stellaria media [5]; Dosage 320 g/ha) [%]	VERPE pre-emergence efficacy (herbicidal activity) (Veronica persica [6]; Dosage 320 g/ha) [%]	post-emergence efficacy VERPE (Veronica persica [7]; 320 g/ha) [%]	STEME pre-emergence efficacy (herbicidal activity) (Stellaria media [5]; Dosage 80 g/ha) [%]	VERPE pre-emergence efficacy (herbicidal activity) (Veronica persica [6]; Dosage 80 g/ha) [%]	VIOTR pre-emergence efficacy (herbicidal activity) (Viola tricolor [3]; Dosage 80 g/ha) [%]	post-emergence efficacy VIOTR (Viola tricolor [4]; 80 g/ha) [%]	post-emergence efficacy STEME (Stellaria media [9]; 320 g/ha) [%]	also measured
Cc1cc2c(s1)CCCC2Nc1nc(N)c(-c2cncc(F)c2)c(C(F)F)n1 (racemic) [compound 299]	100	100	90	90	100	90	–	–	–	–	–	–	–	–	–	–
Cc1cc2c(s1)CCCC2Nc1nc(N)c(-c2cncc(F)c2)c(C(C)F)n1 (racemic) [compound 316]	–	100	80	–	100	80	70	100	100	100	–	–	–	–	–	–
CC(=NOC(C)C)c1cnc(NC2CCCc3sc(C)cc32)nc1N (racemic) [compound 342]	70	–	100	–	–	–	–	100	100	–	100	100	–	–	–	–
Cc1cc2c(s1)CCCC2Nc1nc(N)c(S(C)(=O)=O)c(C(F)(F)F)n1 (racemic) [compound 298]	90	100	100	–	100	80	50	100	100	–	100	100	90	80	–	post-emergence efficacy AMARE (Amaranthus retroflexus [8]; 80 g/ha): 70%; post-emergence efficacy AMARE (Amaranthus retroflexus [8]; 320 g/ha): 90%
Nc1nc(NC2CCCc3occc32)ncc1C(F)(F)F (racemic) [compound 7]	–	100	90	–	100	–	–	90	–	–	80	–	–	–	80	post-emergence efficacy ABUTH (Abutilon theophrasti): 40%
CC(=O)c1c(N)nc(NC2CCCc3sc(C)cc32)nc1C(F)(F)F (racemic) [compound 268]	90	100	90	90	90	80	–	100	100	80	90	100	80	80	100	ALOMY pre-emergence efficacy (herbicidal activity) (Alopecurus myosuroides; Dosage 80 g/ha): 80%; AMARE pre-emergence efficacy (herbicidal activity) (Amaranthus retroflexus [1]; Dosage 80 g/ha): 100%; SETVI pre-emergence efficacy (herbicidal activity) (Setaria viridis [2]; Dosage 80 g/ha): 90%; post-emergence efficacy SETVI (Setaria viridis [10]): 80%; post-emergence efficacy STEME (Stellaria media [9]; 80 g/ha): 100%; post-emergence efficacy VERPE (Veronica persica [7]; 80 g/ha): 80%
